Experimental data taken from paper PMC6199744, “Development of Chemical Proteomics for the Folateome and Analysis of the Kinetoplastid Folateome” (ACS Infectious Diseases, 2018).
Like-named read-outs stand apart in the source and are kept apart here.

What was measured:
Type in all cases: binding
[1] = target: T1, HeLa cell extract proteins (Homo sapiens, UniProt O00483); settings: captured protein NDUFA4; HeLa
T1 construct: endogenous in cells; host or cells: HeLa cell extract

[2] = target: T2, HeLa cell extract proteins (Homo sapiens, UniProt Q9BSJ2); settings: captured protein TUBGCP2; HeLa
T2 construct: endogenous in cells; host or cells: HeLa cell extract
T2 sequence (Q9BSJ2 whole entry): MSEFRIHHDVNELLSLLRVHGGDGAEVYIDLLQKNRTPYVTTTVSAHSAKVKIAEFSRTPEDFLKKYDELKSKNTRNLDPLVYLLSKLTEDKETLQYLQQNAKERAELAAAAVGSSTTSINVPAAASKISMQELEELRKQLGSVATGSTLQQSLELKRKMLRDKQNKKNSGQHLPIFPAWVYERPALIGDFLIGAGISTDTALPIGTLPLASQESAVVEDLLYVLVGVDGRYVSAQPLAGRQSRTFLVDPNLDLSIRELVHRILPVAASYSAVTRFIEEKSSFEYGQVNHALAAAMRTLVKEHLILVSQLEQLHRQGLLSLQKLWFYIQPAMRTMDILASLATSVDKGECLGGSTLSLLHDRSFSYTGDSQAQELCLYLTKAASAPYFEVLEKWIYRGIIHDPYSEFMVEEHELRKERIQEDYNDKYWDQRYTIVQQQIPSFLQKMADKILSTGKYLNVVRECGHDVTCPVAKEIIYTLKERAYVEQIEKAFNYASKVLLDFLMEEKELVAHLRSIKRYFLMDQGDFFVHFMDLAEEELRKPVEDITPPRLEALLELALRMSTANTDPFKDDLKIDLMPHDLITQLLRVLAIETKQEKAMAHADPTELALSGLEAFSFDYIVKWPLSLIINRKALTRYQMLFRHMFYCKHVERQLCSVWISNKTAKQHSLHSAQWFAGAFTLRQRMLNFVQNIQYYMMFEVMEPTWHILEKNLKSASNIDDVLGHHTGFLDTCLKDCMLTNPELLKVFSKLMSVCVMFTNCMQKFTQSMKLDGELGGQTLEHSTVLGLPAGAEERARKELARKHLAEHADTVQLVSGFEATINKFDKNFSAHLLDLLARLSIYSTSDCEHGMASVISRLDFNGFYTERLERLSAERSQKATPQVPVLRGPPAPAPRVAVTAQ

[3] = target: T3, HeLa cell extract proteins (Homo sapiens, UniProt P26640)
T3 construct: endogenous in cells; host or cells: HeLa cell extract
T3 sequence (P26640 1-1264): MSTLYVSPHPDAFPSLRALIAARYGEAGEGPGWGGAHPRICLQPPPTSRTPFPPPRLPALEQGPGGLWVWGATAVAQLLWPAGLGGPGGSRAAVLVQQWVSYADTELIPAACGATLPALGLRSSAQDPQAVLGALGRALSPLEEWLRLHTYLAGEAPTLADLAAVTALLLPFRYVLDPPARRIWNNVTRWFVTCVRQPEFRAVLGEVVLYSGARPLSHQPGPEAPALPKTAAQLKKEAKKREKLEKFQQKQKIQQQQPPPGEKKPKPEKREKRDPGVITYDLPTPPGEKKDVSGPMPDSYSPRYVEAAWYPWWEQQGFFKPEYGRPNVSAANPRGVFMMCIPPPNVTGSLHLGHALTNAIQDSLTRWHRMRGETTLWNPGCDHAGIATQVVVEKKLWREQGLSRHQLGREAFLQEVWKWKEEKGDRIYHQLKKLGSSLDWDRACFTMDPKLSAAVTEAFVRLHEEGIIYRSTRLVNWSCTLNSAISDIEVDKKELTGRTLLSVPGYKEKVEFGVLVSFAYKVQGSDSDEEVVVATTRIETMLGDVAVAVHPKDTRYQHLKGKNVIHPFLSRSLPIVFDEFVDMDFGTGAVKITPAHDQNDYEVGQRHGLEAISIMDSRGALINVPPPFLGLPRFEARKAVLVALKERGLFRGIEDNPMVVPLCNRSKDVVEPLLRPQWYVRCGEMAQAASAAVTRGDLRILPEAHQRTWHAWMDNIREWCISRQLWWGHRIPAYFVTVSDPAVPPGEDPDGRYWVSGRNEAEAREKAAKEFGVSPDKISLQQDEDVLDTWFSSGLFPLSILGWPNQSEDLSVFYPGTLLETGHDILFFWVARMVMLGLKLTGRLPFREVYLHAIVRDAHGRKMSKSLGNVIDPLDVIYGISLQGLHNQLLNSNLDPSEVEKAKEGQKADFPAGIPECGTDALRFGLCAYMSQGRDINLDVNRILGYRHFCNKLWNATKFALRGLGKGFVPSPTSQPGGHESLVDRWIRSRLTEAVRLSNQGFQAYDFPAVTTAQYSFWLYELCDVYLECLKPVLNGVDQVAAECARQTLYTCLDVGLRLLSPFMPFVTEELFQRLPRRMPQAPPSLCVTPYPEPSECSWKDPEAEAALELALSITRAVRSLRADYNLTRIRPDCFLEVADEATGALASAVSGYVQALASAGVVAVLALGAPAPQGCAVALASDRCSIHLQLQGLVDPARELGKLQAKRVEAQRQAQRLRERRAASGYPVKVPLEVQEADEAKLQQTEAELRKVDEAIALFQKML

[4] = target: T4, HeLa cell extract proteins (Homo sapiens, UniProt Q96QU8)
T4 construct: endogenous in cells; host or cells: HeLa cell extract
T4 sequence (Q96QU8 1-1125): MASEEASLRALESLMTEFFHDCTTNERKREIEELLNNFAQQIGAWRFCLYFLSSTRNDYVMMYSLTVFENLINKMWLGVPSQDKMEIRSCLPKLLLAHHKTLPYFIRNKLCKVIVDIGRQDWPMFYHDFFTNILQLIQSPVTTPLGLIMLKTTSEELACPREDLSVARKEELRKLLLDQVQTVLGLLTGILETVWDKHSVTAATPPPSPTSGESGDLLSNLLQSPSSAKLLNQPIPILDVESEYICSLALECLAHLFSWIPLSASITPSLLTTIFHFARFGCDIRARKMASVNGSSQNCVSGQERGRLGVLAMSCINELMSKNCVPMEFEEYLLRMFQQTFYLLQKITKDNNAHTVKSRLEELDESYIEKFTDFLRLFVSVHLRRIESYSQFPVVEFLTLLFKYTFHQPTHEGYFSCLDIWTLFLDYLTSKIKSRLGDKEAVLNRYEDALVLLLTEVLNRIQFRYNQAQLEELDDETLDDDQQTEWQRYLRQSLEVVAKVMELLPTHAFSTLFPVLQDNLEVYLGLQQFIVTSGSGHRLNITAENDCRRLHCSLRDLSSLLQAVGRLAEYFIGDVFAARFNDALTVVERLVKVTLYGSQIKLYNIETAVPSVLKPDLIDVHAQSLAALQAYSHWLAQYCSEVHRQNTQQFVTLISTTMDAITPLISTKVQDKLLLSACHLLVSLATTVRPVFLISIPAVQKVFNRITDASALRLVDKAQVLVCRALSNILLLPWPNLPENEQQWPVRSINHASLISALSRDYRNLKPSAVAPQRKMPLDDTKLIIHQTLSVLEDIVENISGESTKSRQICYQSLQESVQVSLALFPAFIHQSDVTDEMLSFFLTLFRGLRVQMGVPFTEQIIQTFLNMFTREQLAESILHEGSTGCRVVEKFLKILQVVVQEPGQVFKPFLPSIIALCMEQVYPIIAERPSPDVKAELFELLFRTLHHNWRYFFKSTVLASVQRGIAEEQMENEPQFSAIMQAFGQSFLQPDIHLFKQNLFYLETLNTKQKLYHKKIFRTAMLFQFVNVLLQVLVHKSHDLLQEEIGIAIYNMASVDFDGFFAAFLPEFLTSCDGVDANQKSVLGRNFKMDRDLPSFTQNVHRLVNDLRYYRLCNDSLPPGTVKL

[5] = target: T5, HeLa cell extract proteins (Homo sapiens, UniProt Q7Z6Z7)
T5 construct: endogenous in cells; host or cells: HeLa cell extract

T1 sequence (O00483 whole entry): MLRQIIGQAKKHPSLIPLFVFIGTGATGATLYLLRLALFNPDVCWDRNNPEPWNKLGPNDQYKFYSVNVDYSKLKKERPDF

SMILES	fold changes relative to vehicle control [1]	fold changes relative to vehicle control [2]	fold changes relative to vehicle control ([3]; protein VARS, HeLa)	fold changes relative to vehicle control ([4]; HeLa, protein XPO6)	fold changes relative to vehicle control ([5]; HeLa, protein HUWE1)	further results
CCCCCCOc1cccc(Cc2cnc(N)nc2N)c1 [compound 2]	1.17	1.01	–	–	–	–
NCCOCCOCC(=O)Nc1nc2ncc(CNc3ccc(C(=O)NC(CCC(=O)O)C(=O)O)cc3)nc2c(=O)[nH]1 (stereo not drawn) [compound 6]	–	–	1	1.09	1.23	–
CCCCCCOc1ccc(Cc2cnc(N)nc2N)cc1 [compound 1]	0.8	0.76	–	–	–	–
Nc1nc2c(c(=O)[nH]1)N(C=O)C(CNc1ccc(C(=O)N[C@@H](CCC(=O)O)C(=O)O)cc1)CN2 (stereo partly drawn) [LEU, leucovorin]	–	–	0.86	0.99	0.98	–
NCCCNc1ccc(C(=O)NC(CCC(=O)O)C(=O)O)cc1 (stereo not drawn) [compound 7]	–	–	0.91	1.08	0.96	–
Nc1nc2[nH]cc(CCc3ccc(C(=O)N[C@@H](CCC(=O)O)C(=O)O)cc3)c2c(=O)[nH]1 [PTX, pemetrexed]	–	–	–	–	–	fold changes relative to vehicle control [3]: 0.84; fold changes relative to vehicle control [4]: 0.98; fold changes relative to vehicle control [5]: 1.02
Nc1nc2cccc(-c3ccccc3)c2n1Cc1ccc(Cl)c(Cl)c1 [compound 3]	0.82	0.99	–	–	–	–
